From US10995101B2, “2-oxo-thiazole derivatives as A2A inhibitors and compounds for use in the treatment of cancers” (iTeos Therapeutics SA, priority 2017, dated 2021)
Several values for one entry are separate records, joined by “and”; a condition that tells them apart may be missing. Identical values can stand only once. Like-named read-outs stand apart in the source and are kept apart here.

Experiments:
in vitro = conditions: human, Caco-2, pH 7.4
Method: 2 μM dosing solutions for reference compounds and test compounds are prepared by spiking the appropriate volume of intermediate solution to TB with and without 1 μM Zosuquidar. The final concentration of DMSO is no more than 1% (v/v).
Caco-2 cells are grown in MEM supplemented with 2 mM L-glutamine, 10% FBS, 100 U/mL penicillin-G and 100 μg/mL streptomycin. The cells are incubated at 37° C., 5% CO2 and relatively saturated humidity. After reaching 80-90% confluency, the cells are gently detached with 0.05% trypsin-EDTA solution.
TB and dosing solutions were pre-warmed to 37° C. before transport assay. The cell monolayer was washed twice with HBSS containing 10 mM HEPES. For A-B (apical to basolateral) directional transport assay, 75 μL dosing solution is added to the apical well. Fill each basolateral well with 250 μL TB. For B-A (basolateral to apical) directional transport assay, 250 μL of dosing solution is added to the basolateral well after filling each apical well with 75 μL TB. […] The plates are incubated for 120 minutes at 37° C. with 5% CO2 and saturated humidity. The time zero samples are generated by mixing 50 μL initial dosing solution of test compound or reference compound with 100 μL TB and 250 μL quench solution (acetonitrile (ACN) or other appropriate solvent with internal standard(s), based on the bioanalytical method development). At 120 minutes, 150 μL of solution is collected from each A-B receiver well followed by addition of 250 μL quench solution to get A-B receiver sample. And for other samples (A-B donor, B-A donor and receiver), 50 μL of solution is collected from each corresponding well followed by addition of 250 μL quench solution and 100 μL TB. All samples are vortex-mixed and centrifuged at 3220 g for 20 minutes. Subsequently, supernatant is diluted with ultra pure water for LC-MS/MS analysis. The concentrations of test compound in all samples are determined by LC-MS/MS and expressed as peak area ratio of analyte to internal standard.
The concentration of samples is expressed using the peak area ratio of Analyte to Internal Standard (Analyte/IS).
The efflux ratio is calculated using the following equation: Efflux ratio=Papp(A−B)/Papp(B−A) • where Papp (A−B) and Papp (B−A) are the Papp values of compound in Apical to Basolateral and Basolateral to Apical directional transport, respectively.

A2A receptor [1] = biological target: T1, A2A receptor (Homo sapiens, UniProt P29274); assay: Inhibition of cAMP production in HEK cells; format: cell-based; conditions: HEK-293 cells with A2A receptor
T1 sequence (P29274 whole entry): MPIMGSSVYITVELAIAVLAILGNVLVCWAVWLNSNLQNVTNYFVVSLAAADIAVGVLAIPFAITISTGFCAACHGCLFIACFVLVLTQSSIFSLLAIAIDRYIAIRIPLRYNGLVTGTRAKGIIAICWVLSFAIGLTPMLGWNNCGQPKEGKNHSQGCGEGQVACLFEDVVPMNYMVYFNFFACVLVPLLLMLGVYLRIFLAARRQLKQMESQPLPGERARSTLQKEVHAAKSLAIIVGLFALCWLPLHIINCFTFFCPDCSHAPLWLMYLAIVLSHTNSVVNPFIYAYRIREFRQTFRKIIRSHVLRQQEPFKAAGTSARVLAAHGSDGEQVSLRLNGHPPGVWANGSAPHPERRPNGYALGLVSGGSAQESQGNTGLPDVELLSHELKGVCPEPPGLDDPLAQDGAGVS

A2A receptor [2] = biological target: T1, A2A receptor; assay: Human IL-2 T cell assay (restoration of IL-2 production in CGS-21680-treated CD3+ T cells); format: cell-based; design: endogenous in cells; host or cells: human CD3+ T cells isolated from venous blood of healthy volunteers; conditions: restoration of IL-2 production, human CD3+ T cells, anti-CD3/CD28 beads, 72 hours
Description: When T-cells are activated, they produce pro-inflammatory cytokines. When the A2A receptor is activated in T cells, the amount of cytokines produced in response to stimulation of T-cells is reduced.
Venous blood from healthy volunteers, all of whom signed an informed consent approved by the Ethics Committee (FOR-UIC-BV-050-01-01 ICF_HBS_HD Version 5.0), was obtained via ImmuneHealth (Centre Hospitalier Universitaire Tivoli, La Louviere, Belgium). Mononuclear cells were collected by density gradient centrifugation, using SepMate-50 tubes (StemCell Technologies, Grenoble, France) and Lymphoprep (Axis-shield, Oslo, Norway) according to the manufacturer's instructions. CD3+ T cells were isolated by immunomagnetic negative selection, using the EasySep Human T Cell Isolation Kit (StemCell Technologies) as per manufacturer's instructions. CD3+ T cells were stored in heat inactivated foetal bovine serum (hiFBS; Gibco, ThermoFisher Scientific, Merelbeke, Belgium) containing 10% DMSO in liquid nitrogen.
Human purified CD3+ T cells were thawed and washed twice with RPMI1640 medium (with UltraGlutamine; Lonza, Verviers, Belgium) supplemented with 1× non-essential amino acids (Lonza), 2% Pen/Strep (Lonza) and 1 mM Sodium Pyruvate (Gibco) (complete media), containing 10% hiFBS. The cells were suspended either in complete media containing 20% hiFBS or in 100% heat inactivated human serum (hiHS; Sigma-Aldrich, Diegem, Belgium). Cells were activated by adding anti-CD3 and anti-CD28 coated microbeads (Dynabeads human T-activator CD3/CD28; Life Technologies, Paisley, UK), suspended either in complete media containing 20% hiFBS or in 100% hiHS. […] Serial dilutions of the compounds of the present invention were prepared and added to the wells. The cells were placed in a 37° C. humidified tissue culture incubator with 5% CO2 for 72 hours. After 72 hours, supernatants were sampled and IL-2 was quantified using the IL-2 (human) AlphaLISA Biotin-Free Detection Kit (AL333F; Perkin-Elmer, Zaventem, Belgium), according to the manufacturer's instructions.

[3] = Concentration in brain and cerebrospinal fluid compared to plasma; format: in vivo, mice; conditions: for concentration at 0.5 h / Kp at 0.5 h / plasma concentration at 0.5 h: female, Balb-c, mouse, po; for plasma concentration at 0.5 h: Plasma Concentration (ng/mL)
Method: 7-9 weeks old female Balb-c mice (obtained from SLAC Laboratory Animal Co. Ltd., Shanghai, China or SIPPR-B&K Laboratory Animal Co. Ltd., Shanghai, China) were dosed orally at a dose of 10 mg/kg, as a 1.00 mg/mL suspension in 10% DMSO+10% solutol+80% water, adjusted to pH 3-4 (homogenous opaque suspension).
Animals were fasted at least 12 hours prior to the administration. All animals had access to Certified Rodent Diet (Catalog # M01-F, SLAC Laboratory Animal Cl. Ltd., Shanghai, China) ad libitum 4 hours post dosing. Serial bleeding (about 30 μL blood per time point) were performed from submadibular or saphenous vein. Those samples were transferred into prechilled microcentrifuge tubes containing 2 μL of K2EDTA (0.5M) as anti-coagulant and placed on wet ice for further treatment. Immediately after blood collection, the whole brain was harvested immediately at the designed time points. At selected timepoints post-dose, CSF was collected from cisterna magna.
Blood samples were processed for plasma by centrifugation at approximately 4° C., 3000 g 15 min within half an hour of collection. Plasma samples were stored in polypropylene tubes, quick frozen over dry ice and kept at −70° C. until LC/MS/MS analysis. Brain samples were weighed, rinsed in cold distilled water to remove blood, and homogenized using pre-cooled water at the ratio of 1:4 (1 g brain used 4 mL water). And the brain homogenization was kept at −70° C. until LC/MSMS analysis. CSF was quick frozen over dry ice and kept at −70° C. until LC/MS/MS analysis.

[4] = individual mice, PO 10 mg/kg, 0.500 h, 10 mg/kg

NC(=O)COc1cc(N2CCN(CCn3c(=O)sc4c3nc(N)n3nc(-c5ccco5)nc43)CC2)c(F)cc1F [Compound 4, 2-(5-(4-(2-(5-amino-8-(furan-2-yl)-2-oxothiazolo[5,4-e][1,2,4]triazolo [1,5-c]pyrimidin-3(2H)-yl)ethyl)piperazin-1-yl)-2,4-difluorophenoxy)acetamide]
efflux ratio at 120 min, 2 μM (in vitro): 123 | IC50 (A2A receptor [1]; IC50 (nM) (3 nM NECA as agonist, 0.1% BSA), 3 nM NECA as agonist, 0.1% BSA): 0.5 nM | IC50 (A2A receptor [1]; IC50 (nM) (5 nM NECA as agonist, 2% HSA), 5 nM NECA as agonist, 2% HSA): 2 nM | IC50 (A2A receptor [1]; IC50 (nM) (5 μM Adenosine as agonist, 2.0% HSA), 5 μM Adenosine as agonist, 2.0% HSA): 49 nM | IC50 (A2A receptor [2]; IC50 (nM) (500 nM CGS-21680 as agonist, 10% FBS), 500 nM CGS-21680, 10% FBS): 0.3 nM | IC50 (A2A receptor [2]; IC50 (nM) (5000 nM CGS-21680 as agonist, 50% HSA), 5000 nM CGS-21680, 50% HSA): 63 nM | concentration at 0.5 h ([3]; CSF, 10 mg/kg, individual mice, PO 10 mg/kg, 0.500 h, read-out: CSF Concentration): < 3 ng/mL | Kp at 0.5 h ([3]; CSF, 10 mg/kg, individual mice, PO 10 mg/kg, 0.500 h, read-out: CSF/Plasma Ratio): < 0.005 | concentration at 0.5 h ([3]; CSF, 10 mg/kg, mean of 3 mice, PO 10 mg/kg, 0.500 h, read-out: CSF Concentration (ng/mL), Mean): < 3 ng/mL | Kp at 0.5 h ([3]; CSF, 10 mg/kg, mean of 3 mice, PO 10 mg/kg, 0.500 h, read-out: CSF/Plasma Ratio, Mean): < 0.004 | concentration at 0.5 h ([3]; brain, 10 mg/kg, individual mice, PO 10 mg/kg, 0.500 h, read-out: Brain Concentration): < 15 ng/g | Kp at 0.5 h ([3]; brain, 10 mg/kg, individual mice, PO 10 mg/kg, 0.500 h, read-out: Brain/Plasma Ratio): < 0.026 | concentration at 0.5 h ([3]; brain, 10 mg/kg, mean of 3 mice, PO 10 mg/kg, 0.500 h, read-out: Brain Concentration (ng/g), Mean): < 16 ng/g | Kp at 0.5 h ([3]; brain, 10 mg/kg, mean of 3 mice, PO 10 mg/kg, 0.500 h, read-out: Brain/Plasma Ratio, Mean): < 0.021 | plasma concentration at 0.5 h ([3]; 10 mg/kg, Mean, mean of 3 mice, PO 10 mg/kg, 0.500 h): 779 ng/mL | plasma concentration at 0.5 h ([3]; 10 mg/kg, individual mice, PO 10 mg/kg, 0.500 h, female Balb-c mice): 576 ng/mL | CSF Concentration ([3]; individual mice, PO 10 mg/kg, 0.500 h): <3 ng/mL | Plasma Concentration ([3]; individual mice, PO 10 mg/kg, 0.500 h, female Balb-c mice, 10 mg/kg): 995 ng/mL and 765 ng/mL | Brain Concentration [3, 4]: 16.9 ng/g and <15 ng/g | Brain/Plasma Ratio [3, 4]: 0.0169 and <0.020 | CSF/Plasma Ratio [3, 4]: <0.003 and <0.004 | quantity found in brain or CSF ([3]; mice, oral 10 mg/kg): no measurable quantity
